{"source": "patent US10780076B2", "about": "“Inhibition of cancer cell motility” (Northwestern University, priority 2014, dated 2020)", "key": {"[1]": {"test_system": "protein phosphorylation (kinome) in PC3-M and PC3 cells", "assay": "KinomeView phospho-motif antibody screen", "assay_type": "cell-based, human", "conditions": "10 μM, 3 days, ±TGFβ", "method": "FIG. 14A-D. Proteomic analysis of the effects of KBU2046 on the kinome. Screening for effects on the kinome. PC3-M cells were pre-treated with 10 μM KBU2046, genistein or vehicle control for 3 days, then with ±TGFB, as indicated. Resultant cell lysate, as well as lysate from tumors from mice treated with 150 mg/kg KBU2046 or control mice (from manuscript FIG. 3A), were then probed with the KinomeView® panel of antibodies by Western blot. In instances where KBU2046 was inhibiting protein phosphorylation in cells and in tumors, a repeat experiment of PC3-M cells was conducted. In addition to including PC3-M cells, experiments were expanded to examine effects on PC3 cells. […] (C,D) All other Western blots of phospho-motif antibodies that were evaluated on initial screen. NI=tumor not informative; this denotes a tumor sample that yielded an abnormal coomassie blue staining pattern.\nScreening for changes in the kinome induced by KBU2046 were evaluated with the Kinoview™ assay system. […]\nThe KinomeView® panel of antibodies (Cell Signaling Technology, Inc.) detects established protein phosphorylation motifs, and were was to probe for KBU2046-induced changes in protein phosphorylation (FIG. 5A; FIGS. 14A-D). […] Genistein was evaluated under identical treatment conditions for comparison. […]"}, "MKK4": {"target": "T1, MKK4 (Homo sapiens, UniProt P45985)", "T1 sequence (P45985 1-399)": "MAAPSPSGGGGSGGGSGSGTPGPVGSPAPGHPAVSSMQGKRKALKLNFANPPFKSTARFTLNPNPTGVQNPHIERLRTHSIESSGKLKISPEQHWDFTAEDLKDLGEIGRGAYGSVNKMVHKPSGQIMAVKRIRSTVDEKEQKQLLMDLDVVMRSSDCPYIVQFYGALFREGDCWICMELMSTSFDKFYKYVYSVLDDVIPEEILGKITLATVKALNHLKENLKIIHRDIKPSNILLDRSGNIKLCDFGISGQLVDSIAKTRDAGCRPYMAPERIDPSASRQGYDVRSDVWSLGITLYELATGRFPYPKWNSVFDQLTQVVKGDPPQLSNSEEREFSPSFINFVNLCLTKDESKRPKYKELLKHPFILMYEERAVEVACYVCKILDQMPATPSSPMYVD", "conditions": "low nanomolar concentrations; cited from earlier work"}, "[2]": {"test_system": "array of over 9,000 human proteins", "assay": "ProtoArray Human Protein Microarray hybridization", "assay_type": "binding", "method": "FIGS. 19A-D. KBU2046 binds to intact cells, but not to isolated proteins. (A) Chemical structure of KBU2046 linked to biotin (KBU2046-biotin). […] PC3-M cells were pre-treated with 10 μM KBU2046 or with KBU2046-biotin for three days, and single cell motility assays conducted. Data are the mean±SEM. […] PC3-M cells were labeled with […]+/−10 μM free KBU2046, followed by detection with FITC-streptavidin, and visualization by fluorescent microscopy (with equal exposure times). (D) Protein array hybridization. KBU2046-biotin was hybridized to ProtoArray® Human Protein Microarray's at 0.5 and 10 μM with and without 10-fold excess free KBU2046. Proteins were first sought that met the following criteria, and did so at both 0.5 and 10 μM concentrations of KBU2046-biotin (in the absence of free KBU2046): Z-Score greater than 2.5, Z-Factor greater than 0.5, CI P-value less than 0.05, negative control value <2,000 (relative fluorescence units; RFUs), and a signal/negative control signal of >10 and >5 for 10 μM and 0.5 μM conditions, respectively. This yielded 3 proteins, shown in table, for an initial hit rate of 0.03%. It was then required that free KBU2046 inhibit binding by >75% of the two remaining candidates, eliminating isovaleryl-CoA dehydrogenase (ICD). […] The positive control used in protein arrays was staurosporine. Staurosporine is similar to genistein in that both are small compound natural products that are broad spectrum kinase inhibitors. […] The vast majority of these proteins were kinases. Both HSP90β and CDC37 were present on the protein arrays, and were not bound by KBU2046-biotin."}, "PC3-M cells [3]": {"test_system": "PC3-M cells", "assay": "Cell labeling with FITC-streptavidin detection", "assay_type": "cell-based, human", "conditions": "+/−10 μM free KBU2046"}, "PC3-M cells [4]": {"test_system": "PC3-M cells", "assay": "Single cell motility assay with KBU2046-biotin", "assay_type": "cell-based, human", "conditions": "10 μM, three days", "method": "PC3-M cells were pre-treated with 10 μM KBU2046 or with KBU2046-biotin for three days, and single cell motility assays conducted.\nFIGS. 23A-C. […] PC3-M cells were pre-treated with 10 μM KBU2046 or with KBU2046-biotin for three days, and single cell motility assays conducted."}}, "data": [{"compound": "O=c1c(-c2ccc(O)cc2)coc2cc(O)cc(O)c12", "note": "[genistein, 4′,5,7-trihydroxyisoflavone]", "values": [{"measurement": "changes in protein phosphorylation", "setting": "[1]", "value": "widespread changes in protein phosphorylation"}, {"measurement": "inhibition of MKK4 kinase activity (literature)", "setting": "MKK4", "value": "inhibited the kinase activity"}]}, {"compound": "CN[C@@H]1C[C@H]2O[C@@](C)([C@@H]1OC)n1c3ccccc3c3c4c(c5c6ccccc6n2c5c31)C(=O)NC4", "note": "[staurosporine, reference compound]", "values": [{"measurement": "number of proteins bound at >/=10 fold above background", "setting": "[2]; positive control", "value": 214, "unit": "proteins"}]}, {"compound": "O=C(CCCC[C@@H]1SC[C@@H]2NC(=O)N[C@@H]21)NCCOCCOCCOCCOc1ccc2c(c1)OCC(c1ccc(F)cc1)C2=O", "note": "(stereo partly shown) [KBU2046-biotin]", "values": [{"measurement": "labeling of intact cells", "setting": "PC3-M cells [3]", "value": "labels cells in a manner that can be competed off"}, {"measurement": "biological activity in single cell motility", "setting": "PC3-M cells [4]", "value": "biologically active"}, {"measurement": "binding to protein array", "setting": "[2]; 0.5 and 10 μM", "value": "lack of binding"}, {"measurement": "initial hit rate on protein array", "setting": "[2]; 0.5 and 10 μM, before competition criterion", "value": 0.03, "unit": "%"}]}]}
